This is an account of results in patent US6451784B1 (priority 1996, dated 2002).

“Also recorded” adds a separate entry of the source. Like-named read-outs stand apart in the source and are kept apart here. Starred links: 1 amine or outer side, 2 acyl side, 3 side chain; linkers in the order of their positions; H or OH if unused. Positions of bridges follow the written chain, without caps; N, C: chain ends. Non-standard residues stand in square brackets, D forms with d. Residues, ends and D or L forms follow the SMILES beside them. Chains are numbered I, II in the order given. Actinocin(9to1) = Cc1c2oc3c(C)ccc(C(=O)[*:1])c3nc-2c(C(=O)[*:2])c(N)c1=O; NMeV = CN[C@H](C(=O)O)C(C)C; Sar = CNCC(=O)O

The subject of one data set is neoplastic lung disease. More on the design: species or system dogs. Particulars: dog, in vivo.
For another data set, the system named is healthy animals. Particulars: in vivo; cited from earlier work.
Another data set relates to patients. Particulars: cited from earlier work.
Data set [1] relates to gross metastatic disease, micrometastatic hemangiosarcoma or micrometastatic primary lung cancer. More on the design: species or system dogs. The note with it: dog, in vivo.
For data set [2] the following is noted: dog, in vivo.
The conditions of data set [3]: share of drug bound in a protein-containing solution; cited from earlier work.
For a further data set, the system named is mice. Particulars: intraperitoneal pretreatment, bleomycin subcutaneous; cited from earlier work.
The subject of data set [4] is 68-2 Adenocarcinoma Cells.
The next data set relates to rats. The note with it: rat, in vivo.

For the compound `O=P1(N(CCCl)CCCl)NCCCO1` (stereo not drawn) [CTX], the Results entry in the data set on neoplastic lung disease is listed as “SD lung”.
As to `O=P1(N(CCCl)CCCl)NCCCO1` (stereo not drawn) [Cyclophosphamide, cyclophosphamide], the “Toxic effects to the respiratory tract” value in the data set with healthy animals is “only mild inflammation”.
As to `Cc1c2oc3c(C)ccc(C(=O)N[C@@H]4C(=O)N[C@H](C(C)C)C(=O)N5CCC[C@H]5C(=O)N(C)CC(=O)N(C)[C@@H](C(C)C)C(=O)O[C@@H]4C)c3nc-2c(C(=O)N[C@@H]2C(=O)N[C@H](C(C)C)C(=O)N3CCC[C@H]3C(=O)N(C)CC(=O)N(C)[C@@H](C(C)C)C(=O)O[C@@H]2C)c(N)c1=O` [Dactinomycin] (I: T[dV]P[Sar][NMeV] / II: T[dV]P[Sar][NMeV]; ester I:1-I:C, II:1-II:C; linker I:N-II:N via Actinocin(9to1)), the “Pulmonary toxicity of the IV administered drug” value (from here on “Pulmonary toxicity”) in the data set with patients is reported as “no mention is made of pulmonary toxicity”.
On to `COc1cccc2c1C(=O)c1c(O)c3c(c(O)c1C2=O)C[C@@](O)(C(=O)CO)C[C@@H]3O[C@H]1C[C@H](N)[C@H](O)[C@H](C)O1` [Doxorubicin, doxorubicin], for which the “Development of lung metastases” value in the data set on neoplastic lung disease is recorded as “no metastases developed in the lung for four months”. The “Outcome after inhalation treatment” value in data set [1] is “alive with no evidence of disease 81 days later”. In addition, the “Disease in the lung” value in [1] (iv) is on record as “no evidence of disease in the lung”. The “Pulmonary toxicity” value in the data set with patients is on record as “no indication of pulmonary toxicity”. For the same compound, in data set [2], the “Clearance from the lung after pulmonary administration” value is listed as “not rapidly cleared from the lung”; the “Damage to the respiratory tract at necropsy” value was “no damage to the respiratory tract was observed”; the “Peak blood levels following inhalation exposure compared with IV” value is “over an order of magnitude lower”; the “Systemic doxorubicin level after about 4 hours, IV relative to pulmonary route” value is “about six times higher”. Moreover, the “Initial plasma concentration at 2 minutes, IV relative to pulmonary route” value in data set [2] (iv, 1 mg/kg) was “about 1.5 orders of magnitude”.
Turning to `COc1cc([C@@H]2c3cc4c(cc3[C@@H](O[C@@H]3O[C@@H]5CO[C@@H](C)O[C@H]5[C@H](O)[C@H]3O)[C@H]3COC(=O)[C@H]23)OCO4)cc(OC)c1O` [Etoposide, etoposide], the “Pulmonary toxicity” value with patients is listed as “no indication of pulmonary toxicity”.
For `CC(=O)[C@]1(O)Cc2c(O)c3c(c(O)c2[C@@H](O[C@H]2C[C@H](N)[C@H](O)[C@H](C)O2)C1)C(=O)c1ccccc1C3=O` [Idarubicin], the “Pulmonary toxicity” value in the data set with patients is given as “no mention is made of pulmonary toxicity”.
Turning to `CCc1c2c(nc3ccc(OC(=O)N4CCC(N5CCCCC5)CC4)cc13)-c1cc3c(c(=O)n1C2)COC(=O)[C@]3(O)CC` [Irinotecan], in the data set with patients, the “Pulmonary toxicity” value is “no mention is made of pulmonary toxicity”.
As to `CO[C@@]12[C@H](COC(N)=O)C3=C(C(=O)C(C)=C(N)C3=O)N1C[C@@H]1N[C@@H]12` [Mutamycin, mitomycin], the “Toxic effects to the respiratory tract” value in the data set on healthy animals was “the most severe results”.
As for `CC(=O)O[C@H]1C(=O)[C@@]2(C)[C@H]([C@H](OC(=O)c3ccccc3)[C@]3(O)C[C@H](OC(=O)[C@H](O)[C@@H](NC(=O)c4ccccc4)c4ccccc4)C(C)=C1C3(C)C)[C@]1(OC(C)=O)CO[C@@H]1C[C@@H]2O` [Taxol, Paclitaxel], in the data set on neoplastic lung disease, the Results entry was “SD (4 weeks) lung; also recorded: PD lung, Rx discontinued”. In data set [1], the “Outcome after inhalation treatment” value is “no evidence of disease”; the Results entry was “SD (PR after; also recorded: PD (PR noted; also recorded: Alive and NED”. For the same compound, in the data set with patients, the “Pulmonary toxicity” value is “pulmonary toxicity is not listed”.
For `CC[C@]1(O)C[C@H]2CN(CCc3c([nH]c4ccccc34)[C@@](C(=O)OC)(c3cc4c(cc3OC)N(C=O)[C@H]3[C@@](O)(C(=O)OC)[C@H](OC(C)=O)[C@]5(CC)C=CCN6CC[C@]43[C@@H]65)C2)C1` [Vincristine, vincristine], the “Pulmonary toxicity” value with patients was “no pulmonary toxicity noted”.
Turning to `Nc1ccn([C@@H]2O[C@H](CO)[C@@H](O)[C@@H]2O)c(=O)n1` [cytarabine], the Protein binding affinity in [3] was 13%.
Regarding `C[C@@H](CN1CC(=O)NC(=O)C1)N1CC(=O)NC(=O)C1` [dexrazoxane], the “Protection against bleomycin-induced pulmonary damage” value in the data set on mice was “reduced pulmonary alterations particularly fibrosis”.
On to carboplatin, for which, in data set [4] (Group 2, IV 180 mg/m^2, Day 61), the “Mean Lung Weight” value worked out at 1.37 ± 0.16 g and the “Mean Percentage of Lung W/Tumors” value turned out to be 10 ± 0%. In data set [4] (Group 3, IV 300 mg/m^2, Day 61), the “Mean Lung Weight” value amounted to 1.37 ± 0.11 g and the “Mean Percentage of Lung W/Tumors” value turned out to be 10 ± 0%. Further, the “Lung covered by tumor” value in [4] (rat, IV 180 or 300 mg/m^2, Day 61) was 10%. Besides, in data set [4] (rat, both low (180 mg/m^2) and high (300 mg/m^2) dose, Day 61), the “Average lung and lung tumor weight” value stood at 1.37 gram. The “Tolerated dose when given by inhalation” value with rats is recorded as “up to 1.9 mg/m^2”.
